The test system of data set [1] is HepG2. The data set can be described thus: Cytotoxicity against human HepG2 cells after 48 hrs by CellTiter Glo assay. Type of data set: cell-based. The settings on record: HepG2, 48 h. (In ATP-based viability assays light output follows the ATP content of the culture.)
Data set [2] addresses Plasmepsin V (Plasmodium falciparum (isolate 3D7), UniProt Q8I6Z5). The data set can be described thus: Inhibition of HA-tagged transgenic Plasmodium falciparum plasmepsin 5 using DABCYL-RNKRTLAQKQ-E-EDANS as substrate after 120 mins by fluorescence plate reader analysis.
In data set [3] the test system is Plasmodium falciparum. The data set can be described thus: Antiparasitic activity against early ring-stage of Plasmodium falciparum 3D7 infected in human erythrocytes assessed as inhibition of parasite viability after 72 hrs by flow cytometric analysis. Type of data set: functional, organism-based. The settings on record: 3D7, 72 h. Background: A flow cytometer gives signals particle by particle.

Data set [4] is described as follows: Stability in phosphate buffer at 5000 ng/ml at 37 degC at pH 7.4 measured over 24 hrs by LC-MS analysis in presence of porcine pancreatin. In kind it is physicochemical. The settings on record: pig, pH 7.4, 24 h.
Data set [5] relates to Serum. The data set can be described thus: Metabolic stability in human serum at 5000 ng/ml at 37 degC measured over 55 hrs by LC-MS analysis. In kind it is ADME.
For data set [6], the target named is Plasmepsin V (Plasmodium falciparum (isolate 3D7)) (UniProt Q8I6Z5). The data set can be described thus: Inhibition of plasmepsin 5 in trophozoite stage of transgenic Plasmodium falciparum infected in erythrocytes assessed as suppression of PEXEL processing of GFP-fused EMP3 at 20 uM after 5 hrs by Western blot analysis. In kind it is cell-based.
Plasmepsin V (Plasmodium falciparum (isolate 3D7)), sequence (Q8I6Z5 whole entry, looked up, the tested form may be a part): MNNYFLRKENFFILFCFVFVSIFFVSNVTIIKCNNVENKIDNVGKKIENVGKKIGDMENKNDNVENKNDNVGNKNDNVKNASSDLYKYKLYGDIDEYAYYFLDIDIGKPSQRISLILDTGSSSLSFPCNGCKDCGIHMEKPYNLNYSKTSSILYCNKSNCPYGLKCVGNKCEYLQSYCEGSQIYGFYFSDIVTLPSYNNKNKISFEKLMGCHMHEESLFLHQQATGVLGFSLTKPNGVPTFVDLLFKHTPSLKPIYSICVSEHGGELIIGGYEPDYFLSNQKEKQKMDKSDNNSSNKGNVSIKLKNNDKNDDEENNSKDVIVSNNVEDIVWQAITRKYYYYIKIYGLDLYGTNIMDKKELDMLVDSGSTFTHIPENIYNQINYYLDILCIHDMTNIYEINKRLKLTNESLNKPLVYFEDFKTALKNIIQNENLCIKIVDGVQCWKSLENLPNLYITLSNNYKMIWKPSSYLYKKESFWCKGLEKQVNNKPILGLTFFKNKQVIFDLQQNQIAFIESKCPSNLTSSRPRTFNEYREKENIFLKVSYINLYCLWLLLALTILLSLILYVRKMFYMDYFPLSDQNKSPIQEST

Active and inactive are the calls of the source. The rule behind the calls is not given here. Square brackets hold non-standard residues; d marks the D form. Peptide text beside a SMILES is read from it. * marks the point of attachment. Sta = CC(C)C[C@H](N)[C@@H](O)CC(=O)O; NHPhenethyl = c1ccc(CCN*)cc1; NMeV = CN[C@H](C(=O)O)C(C)C; Cbz = O=C(OCc1ccccc1)* Some results are limits rather than exact numbers.

Plasmepsin V, sequence (Q8I6Z5 whole entry): as the sequence (Q8I6Z5 whole entry, looked up, the tested form may be a part) above

One may read the EC50 as the concentration that produces a half-maximal response. Molecule `COc1cc([C@@H]2c3cc4c(cc3[C@@H](O[C@@H]3O[C@@H]5CO[C@@H](C)O[C@H]5[C@H](O)[C@H]3O)[C@H]3COC(=O)[C@H]23)OCO4)cc(OC)c1O` [ETOPOSIDE] registered a 50% effective concentration (EC50) in data set [1] of 9.8 µM.

The IC50 is the concentration that gives 50% inhibition. Read a high IC50 as weaker potency in that assay. Consider `CC(C)C[C@H](NC(=O)[C@H](C)NC(=O)[C@H](CCCNC(=N)N)NC(=O)OCc1ccccc1)[C@@H](O)CC(=O)N(C)CCc1ccc(Cl)cc1`, for which the IC50 in data set [2] was determined as 5.35 µM. In addition, the EC50 in data set [3] is 20.3 µM; in data set [1], above 50 µM. The Stability result in data set [4] and in data set [5] was “Stable” throughout. Moreover, the inhibition entry in data set [6] was “inactive”.

Molecule `CC(C)C[C@H](NC(=O)[C@@H](NC(=O)[C@H](CCCNC(=N)N)NC(=O)OCc1ccccc1)C(C)C)[C@@H](O)CC(=O)NCCc1ccccc1` (Cbz-Arg-Val-[Sta]-NHPhenethyl) came in with a half-inhibitory concentration (IC50) in data set [2] of 0.026 µM. In addition, the EC50 was 3.97 µM in data set [3] and above 50 µM in data set [1]. Moreover, the inhibition entry in data set [6] is “Active”.

In data set [2], `CC(C)C[C@H](NC(=O)[C@H](C(C)C)N(C)C(=O)[C@H](CCCNC(=N)N)NC(=O)OCc1ccccc1)[C@@H](O)CC(=O)NCCc1ccccc1` (Cbz-Arg-[NMeV]-[Sta]-NHPhenethyl) gave an IC50 above 50 µM. The EC50 in data set [3] was 5.89 µM. For the same molecule, in data set [6], the inhibition entry was “inactive”.

Consider `CC(C)C[C@H](NC(=O)[C@H](C)NC(=O)[C@H](CCCNC(=N)N)N(C)C(=O)OCc1ccccc1)[C@@H](O)CC(=O)NCCc1ccc(Cl)cc1`, for which the IC50 in data set [2] was found to be 15.6 µM. The half-maximal effective concentration (EC50) in data set [3] is 67.8 µM; in data set [1], above 50 µM. Moreover, the Stability result in data set [4] and in data set [5] was “Stable” each time. The inhibition result in data set [6] was “inactive”.

Take `CCN(CC)CCCC(C)Nc1ccnc2cc(Cl)ccc12` (centres undefined) [CHLOROQUINE]: in data set [3], the half-maximal effective concentration (EC50) is 0.01 µM.

`CC(C)C[C@H](NC(=O)[C@H](C)N(C)C(=O)[C@H](CCCNC(=N)N)NC(=O)OCc1ccccc1)[C@@H](O)CC(=O)NCCc1ccc(Cl)cc1` displayed an IC50 in data set [2] of 48 µM. Also, the concentration for a half-maximal effect (EC50) in data set [3] was 23.2 µM; in data set [1] it was above 50 µM. Also, the Stability entry in data set [4] and in data set [5] was “Stable” in each case. Further, the inhibition entry in data set [6] was “inactive”.

`CC(C)C[C@H](NC(=O)[C@H](C)NC(=O)[C@H](CCCNC(=N)N)NC(=O)OCc1ccccc1)[C@@H](O)CC(=O)NCCc1ccc(Cl)cc1` had a concentration for half-maximal inhibition (IC50) in data set [2] of 0.3 µM. Also, the concentration for a half-maximal effect (EC50) in data set [3] was 15.3 µM; in data set [1] it was above 50 µM. Besides, the Stability entry in data set [4] and in data set [5] was “Stable” in each case. The inhibition result in data set [6] was “Active”.

In turn, `CC(C)C[C@@H]([C@@H](O)CC(=O)NCCc1ccc(Cl)cc1)N(C)C(=O)[C@H](C)NC(=O)[C@H](CCCNC(=N)N)NC(=O)OCc1ccccc1` displayed an IC50 in data set [2] of 0.89 µM. The values for the EC50 in data set [3] and in data set [1] were 29.2 µM and above 50 µM, respectively. Also, the Stability result in data set [4] is listed as “Unstable”; in data set [5], “Stable”. The inhibition entry in data set [6] is “inactive”.

(Values after ChEMBL document CHEMBL3734735, “The effect of N-methylation on transition state mimetic inhibitors of the Plasmodium protease, plasmepsin V” (Medchemcomm, 2015).)
